This experiment concerns rat central imidazoline I2 receptor. As to the kind of experiment: Central imidazoline I2 radioligand binding ([3H]Idazoxan). The conditions noted are these: compound at 1 μM; Wistar Rat cerebral cortex. How it is done: To evaluate in radioligand binding assays the activity of compounds of the invention, rat central imidazoline I2 receptor obtained from Wistar Rat cerebral cortex (Brown, C. M. et al., Br. J. Pharmacol. 99:803, 1990) in a modified Tris-HCl buffer (50 mM Tris-HCl buffer, pH 7.4, 0.5 mM EDTA) was used. Compounds of the invention were incubated with 2 nM [^3H]Idazoxan for 30 minutes at 25° C. Non-specific binding was estimated in the presence of 1 μM Idazoxan. Receptor proteins were filtered and washed, the filters were then counted to determine [^3H]Idazoxan specifically bound. Compounds were screened at 1 μM or lower, using 1% DMSO as vehicle. Compounds of the invention were tested in this biochemical assay and percent inhibition of specific binding was determined. Biochemical assay results are presented as the percent inhibition of specific binding in Table 5.
Turning to `CCOC(=O)CCn1c2c(c3cc(Cl)ccc31)CN(C)CC2` [CD17, ethyl 3-(8-chloro-1,2,3,4-tetrahydro-2-methylpyrido[4,3-b]indol-5-yl)propanoate], the “Imidazoline I2 Central (1 μM), percent inhibition of specific binding” value is on record as 62%.
To `Cc1ccc2c(c1)c1c(n2CCN)CCN(C)C1` [CD62, 2-(1,2,3,4-tetrahydro-2,8-dimethylpyrido[4,3-b]indol-5-yl)ethanamine] belongs 13%; to `Cc1ccc2c(c1)c1c(n2CCC(=O)NCc2ccccc2)CCN(C)C1` [Compound 59, N-benzyl-3-(1,2,3,4-tetrahydro-2,8-dimethylpyrido[4,3-b]indol-5-yl)propanamide], 64%.
To `Cc1ccc2c(c1)c1c(n2CCNC(=O)C2CCNCC2)CCN(C)C1` [Compound 65, N-(2-(1,2,3,4-tetrahydro-2,8-dimethylpyrido[4,3-b]indol-5-yl)ethyl)piperidine-4-carboxamide] belongs 23%.
Then `Cc1ccc2c(c1)c1c(n2CCC(=O)O)CCN(C)C1` [CD47, 3-(1,2,3,4-tetrahydro-2,8-dimethylpyrido[4,3-b]indol-5-yl)propanoic acid], with 3%; and `CN1CCc2c(c3cc(Cl)ccc3n2CC(=O)OC2CCCC2)C1` [Compound 15], with 23%.
For `CN1CCc2c(c3cc(Cl)ccc3n2CCC(=O)O)C1` [CD55, 3-(8-chloro-1,2,3,4-tetrahydro-2-methylpyrido[4,3-b]indol-5-yl)propanoic acid], the “Imidazoline I2 Central (1 μM), percent inhibition of specific binding” value is reported as 3%.
In the case of `Cc1ccc2c(c1)c1c(n2CC(N)=O)CCN(C)C1` [Compound 64, 2-(1,2,3,4-tetrahydro-2,8-dimethylpyrido[4,3-b]indol-5-yl)acetamide], the “Imidazoline I2 Central (1 μM), percent inhibition of specific binding” value is reported as 16%.
To `CC(C)OC(=O)Cn1c2c(c3cc(Cl)ccc31)CN(C)CC2` [Compound 11, isopropyl 2-(8-chloro-1,2,3,4-tetrahydro-2-methylpyrido[4,3-b]indol-5-yl)acetate] belongs 5%; to `CN1CCc2c(c3cc(Cl)ccc3n2CC(N)=O)C1` [Compound 45, 2-(8-chloro-1,2,3,4-tetrahydro-2-methylpyrido[4,3-b]indol-5-yl)acetamide], 24%; to `Cc1ccc2c(c1)c1c(n2CC(=O)NCc2ccccc2)CCN(C)C1` [Compound 25, N-benzyl-2-(1,2,3,4-tetrahydro-2,8-dimethylpyrido[4,3-b]indol-5-yl)acetamide], 18%.
To `CN1CCc2c(c3cc(Cl)ccc3n2CC(=O)OCc2ccccc2)C1` [Compound 13, benzyl 2-(8-chloro-1,2,3,4-tetrahydro-2-methylpyrido[4,3-b]indol-5-yl)acetate] belongs 16%.
Then `Cc1ccc2c(c1)c1c(n2CC(=O)NC(C)C)CCN(C)C1` [Compound 23, 2-(1,2,3,4-tetrahydro-2,8-dimethylpyrido[4,3-b]indol-5-yl)-N-isopropylacetamide], with 1%; and `Cc1ccc2c(c1)c1c(n2CC(=O)O)CCN(C)C1` [CD58, 2-(1,2,3,4-tetrahydro-2,8-dimethylpyrido[4,3-b]indol-5-yl)acetic acid], with 3%.
As for `Cc1ccc2c(c1)c1c(n2CCC(=O)Nc2ccc(F)cc2)CCN(C)C1` [Compound 47, N-(4-fluorophenyl)-3-(1,2,3,4-tetrahydro-2,8-dimethylpyrido[4,3-b]indol-5-yl)propanamide], the “Imidazoline I2 Central (1 μM), percent inhibition of specific binding” value amounted to 47%.
As for `CN1CCc2c(c3cc(Cl)ccc3n2CC(=O)NC2CCCC2)C1` [Compound 27, 2-(8-chloro-1,2,3,4-tetrahydro-2-methylpyrido[4,3-b]indol-5-yl)-N-cyclopentylacetamide], the “Imidazoline I2 Central (1 μM), percent inhibition of specific binding” value is listed as 8%.
As for `CCNC(=O)Cn1c2c(c3cc(C)ccc31)CN(C)CC2` [Compound 22, N-ethyl-2-(1,2,3,4-tetrahydro-2,8-dimethylpyrido[4,3-b]indol-5-yl)acetamide], the “Imidazoline I2 Central (1 μM), percent inhibition of specific binding” value is 51%.
Then `CN1CCc2c(c3cc(Cl)ccc3n2CCC(=O)N(C)C)C1` [Compound 49, 3-(8-chloro-1,2,3,4-tetrahydro-2-methylpyrido[4,3-b]indol-5-yl)-N,N-dimethylpropanamide], with 58%; and `Cc1ccc2c(c1)c1c(n2CCNC(=O)C(C)C)CCN(C)C1` [Compound 61, N-(2-(1,2,3,4-tetrahydro-2,8-dimethylpyrido[4,3-b]indol-5-yl)ethyl)isobutyramide], with 40%.
Then `Cc1ccc2c(c1)c1c(n2CCC(=O)NCC2CCCCC2)CCN(C)C1` [Compound 30, N-(cyclohexylmethyl)-3-(1,2,3,4-tetrahydro-2,8-dimethylpyrido[4,3-b]indol-5-yl)propanamide], with 61%.
Then `Cc1ccc2c(c1)c1c(n2CCNC(=O)c2ccncc2)CCN(C)C1` [Compound 50, N-(2-(1,2,3,4-tetrahydro-2,8-dimethylpyrido[4,3-b]indol-5-yl)ethyl)isonicotinamide], with 24%; and `CN1CCc2c(c3cc(Cl)ccc3n2CC(=O)O)C1` [CD46, 2-(8-chloro-1,2,3,4-tetrahydro-2-methylpyrido[4,3-b]indol-5-yl)acetic acid], with 28%; and `Cc1ccc2c(c1)c1c(n2CCNC(=O)C2CCCCC2)CCN(C)C1` [Compound 62, N-(2-(1,2,3,4-tetrahydro-2,8-dimethylpyrido[4,3-b]indol-5-yl)ethyl)cyclohexanecarboxamide], with 42%.
In the case of `CN1CCc2c(c3cc(Cl)ccc3n2CCC(=O)NC2CCCC2)C1` [Compound 31, 3-(8-chloro-1,2,3,4-tetrahydro-2-methylpyrido[4,3-b]indol-5-yl)-N-cyclopentylpropanamide], the “Imidazoline I2 Central (1 μM), percent inhibition of specific binding” value is on record as 33%.
Then `CCCCOC(=O)Cn1c2c(c3cc(Cl)ccc31)CN(C)CC2` [Compound 52, butyl 2-(8-chloro-1,2,3,4-tetrahydro-2-methylpyrido[4,3-b]indol-5-yl)acetate], with 14%; and `Cc1ccc2c(c1)c1c(n2CC(=O)Nc2ccc(F)cc2)CCN(C)C1` [Compound 51, N-(4-fluorophenyl)-2-(1,2,3,4-tetrahydro-2,8-dimethylpyrido[4,3-b]indol-5-yl)acetamide], with 12%; and `CN1CCc2c(c3cc(Cl)ccc3n2CC(=O)NC2CCCCC2)C1` [Compound 60, 2-(8-chloro-1,2,3,4-tetrahydro-2-methylpyrido[4,3-b]indol-5-yl)-N-cyclohexylacetamide], with 6%.
To `CN1CCc2c(c3cc(Cl)ccc3n2CC(=O)N(C)C)C1` [Compound 48, 2-(8-chloro-1,2,3,4-tetrahydro-2-methylpyrido[4,3-b]indol-5-yl)-N,N-dimethylacetamide] belongs 18%.

Source of the values: patent US9115137B2, “2,3,4,5-tetrahydro-1H-pyrido[4,3-B]indole compounds and methods of use thereof” (priority 2008, dated 2015).
